Test results from patent publication US10968203B2, “Pyrimidinyl-pyridyloxy-naphthyl compounds and methods of treating IRE1-related diseases and disorders” (Genentech, Inc., priority 2017, dated 2021).
pIC50: −log10 of the molar value. Counter-ions that a name gives are not always drawn.

system: XBP1s-luc 293 LUC; test: cellular PD assay, XBP1s-LUC reporter (Example 903); type: cell-based; conditions: Table 1; read-out: XBP1s-luc 293 LUC (IC50)
Outline: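 A luciferase fusion, in frame and expressed only when the XBP1 transcript is spliced, served as the readout of cellular IRE1α activity in an XBP1-Luc reporter line.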

Point of comparison: `Cc1ccc2c(NCCC3CC3)cccc2c1Oc1ncccc1-c1ccnc(N[C@H]2CCCNC2)n1` [Example 224, (S)-4-(2-((5-((2-Cyclopropylethyl)amino)-2-methylnaphthalen-1-yl)oxy)pyridin-3-yl)-N-(piperidin-3-yl)pyrimidin-2-amine], pIC50 6.75. Against it:
- Cc1ccc2c(NS(=O)(=O)Cc3ccncc3)cccc2c1Oc1ncccc1-c1ccnc(N[C@H]2CCCNC2)n1 [Example 167, (S)—N-(6-Methyl-5-((3-(2-(piperidin-3-ylamino)pyrimidin-4-yl)pyridin-2-yl)oxy)naphthalen-1-yl)-1-(pyridin-4-yl)methanesulfonamide] — 0.97 log units higher, 7.72
- Cc1ccc2c(NS(=O)(=O)C3CCCCC3)cccc2c1Oc1ncccc1-c1ccnc(N[C@H]2CCCNC2)n1 [Example 140, (S)—N-(6-Methyl-5-((3-(2-(piperidin-3-ylamino)pyrimidin-4-yl)pyridin-2-yl)oxy)naphthalen-1-yl)cyclohexanesulfonamide] — the same, 6.75
- Cc1ccc2c(NCc3ccccn3)c(F)ccc2c1Oc1ncccc1-c1ccnc(N[C@H]2CCCNC2)n1 [Example 296, (S)-4-(2-((6-Fluoro-2-methyl-5-((pyridin-2-ylmethyl)amino)naphthalen-1-yl)oxy)pyridin-3-yl)-N-(piperidin-3-yl)pyrimidin-2-amine] — within 0.2 log units, 6.66
- Cc1ccc2c(NC(=O)[C@H]3CCCC3C)cccc2c1Oc1ncccc1-c1ccnc(N[C@H]2CCCNC2)n1 (single isomer, unassigned) [Example 372] — 0.42 log units lower, 6.33
- Cc1ccc2c(N[C@H](C)[C@@H](C)O)cccc2c1Oc1ncccc1-c1ccnc(N[C@H]2CCCNC2)n1 [Example 381, anti-3-((6-Methyl-5-((3-(2-(((S)-piperidin-3-yl)amino)pyrimidin-4-yl)pyridin-2-yl)oxy)naphthalen-1-yl)amino)butan-2-ol] — 0.36 log units lower, 6.39
- CO[C@H]1CNC[C@@H](Nc2nccc(-c3cccnc3Oc3c(C)ccc4c(NS(=O)(=O)Cc5ccc(Cl)cc5)cccc34)n2)C1 (single isomer, unassigned) [Example 205] — within 0.2 log units, 6.89
- Cc1ccc2c(N3CCCC3=O)cccc2c1Oc1ncccc1-c1ccnc(N[C@H]2CCCNC2)n1 [Example 216, (S)-1-(6-Methyl-5-((3-(2-(piperidin-3-ylamino)pyrimidin-4-yl)pyridin-2-yl)oxy)naphthalen-1-yl)pyrrolidin-2-one] — within 0.2 log units, 6.59
- Cc1ccc2c(NC(=O)CC(C)(C)C)c(F)ccc2c1Oc1ncccc1-c1ccnc(N[C@H]2CCCNC2)n1 [Example 275, (S)—N-(2-Fluoro-6-methyl-5-((3-(2-(piperidin-3-ylamino)pyrimidin-4-yl)pyridin-2-yl)oxy)naphthalen-1-yl)-3,3-dimethylbutanamide] — 0.37 log units higher, 7.12
- Cc1ccc2c(-c3ccccn3)cccc2c1Oc1ncccc1-c1ccnc(N[C@H]2CCCNC2)n1 [Example 353, (S)-4-(2-((2-Methyl-5-(pyridin-2-yl)naphthalen-1-yl)oxy)pyridin-3-yl)-N-(piperidin-3-yl)pyrimidin-2-amine] — within 0.2 log units, 6.88
- Cc1ccc2c(NS(=O)(=O)Cc3ccccc3F)c(F)ccc2c1Oc1ncccc1-c1ccnc(N[C@H]2CCCNC2)n1 [Example 391, (S)—N-(2-Fluoro-6-methyl-5-((3-(2-(piperidin-3-ylamino)pyrimidin-4-yl)pyridin-2-yl)oxy)naphthalen-1-yl)-1-(2-fluorophenyl)methanesulfonamide] — 1.81 log units higher, 8.56
- CCc1cnn(-c2cccc3c(Oc4ncccc4-c4ccnc(N[C@H]5CCCNC5)n4)c(C)ccc23)c1 [Example 290, (S)-4-(2-((5-(4-Ethyl-1H-pyrazol-1-yl)-2-methylnaphthalen-1-yl)oxy)pyridin-3-yl)-N-(piperidin-3-yl)pyrimidin-2-amine] — 0.36 log units lower, 6.39
- Cc1ccc2c(NS(=O)(=O)Cc3ccc(F)cc3F)cccc2c1Oc1ncccc1-c1ccnc(N[C@H]2CCCNC2)n1 [Example 157, (S)-1-(2,4-Difluorophenyl)-N-(6-methyl-5-((3-(2-(piperidin-3-ylamino)pyrimidin-4-yl)pyridin-2-yl)oxy)naphthalen-1-yl)methanesulfonamide] — 1.35 log units higher, 8.10
- Cc1ccc2c(N3CCCS3(=O)=O)cccc2c1Oc1ncccc1-c1ccnc(N[C@H]2CCCNC2)n1 [Example 194, (S)-2-(6-Methyl-5-((3-(2-(piperidin-3-ylamino)pyrimidin-4-yl)pyridin-2-yl)oxy)naphthalen-1-yl)isothiazolidine 1,1-dioxide] — 0.25 log units lower, 6.50
- Cc1cc(NS(=O)(=O)C2CCCC2)c2ccccc2c1Oc1ncccc1-c1ccnc(N[C@H]2CC[C@H](N)CC2)n1 [Example 119, N-(4-((3-(2-(((trans)-4-aminocyclohexyl)amino)pyrimidin-4-yl)pyridin-2-yl)oxy)-3-methylnaphthalen-1-yl)cyclopentanesulfonamide hydrochloride] — 0.24 log units lower, 6.51
- Cc1ccc2c(NS(=O)(=O)Cc3ccc(F)cc3)cccc2c1Oc1ncccc1-c1ccnc(N[C@H]2CCCNC2)n1 [Example 150, (S)-1-(4-Fluorophenyl)-N-(6-methyl-5-((3-(2-(piperidin-3-ylamino)pyrimidin-4-yl)pyridin-2-yl)oxy)naphthalen-1-yl)methanesulfonamide] — 0.85 log units higher, 7.60
- Cc1ccc2c(NCc3cscn3)cccc2c1Oc1ncccc1-c1ccnc(N[C@H]2CCCNC2)n1 [Example 211, (S)-4-(2-((2-Methyl-5-((thiazol-4-ylmethyl)amino)naphthalen-1-yl)oxy)pyridin-3-yl)-N-(piperidin-3-yl)pyrimidin-2-amine] — 0.40 log units higher, 7.15
- CC[C@@H](C)C(=O)Nc1cccc2c(Oc3ncccc3-c3ccnc(N[C@H]4CCCNC4)n3)c(C)ccc12 [Example 204, (R)-2-methyl-N-(6-methyl-5-((3-(2-(((S)-piperidin-3-yl)amino)pyrimidin-4-yl)pyridin-2-yl)oxy)naphthalen-1-yl)butanamide] — 0.40 log units lower, 6.35
- Cc1ccc2c(NC(=O)C3CC3C(F)(F)F)cccc2c1Oc1ncccc1-c1ccnc(N[C@H]2CCCNC2)n1 (single isomer, unassigned) [Example 228] — 0.31 log units higher, 7.06
- Cc1ccc2c(NC(=O)[C@H]3CC34CC4)cccc2c1Oc1ncccc1-c1ccnc(N[C@H]2CCCNC2)n1 (single isomer, unassigned) [Example 217] — 0.51 log units higher, 7.26
- Cc1ccc2c(NS(=O)(=O)Cc3cscn3)cccc2c1Oc1ncccc1-c1ccnc(N[C@H]2CCCNC2)n1 [Example 156, (S)—N-(6-Methyl-5-((3-(2-(piperidin-3-ylamino)pyrimidin-4-yl)pyridin-2-yl)oxy)naphthalen-1-yl)-1-(thiazol-4-yl)methanesulfonamide] — within 0.2 log units, 6.80
- Cc1nc(CNc2cccc3c(Oc4ncccc4-c4ccnc(N[C@H]5CCCNC5)n4)c(C)ccc23)c(C)s1 [Example 294, (S)-4-(2-((5-(((2,5-Dimethylthiazol-4-yl)methyl)amino)-2-methylnaphthalen-1-yl)oxy)pyridin-3-yl)-N-(piperidin-3-yl)pyrimidin-2-amine] — within 0.2 log units, 6.62
- Cc1ccc2c(NC(=O)Cc3ccc(F)cc3)cccc2c1Oc1ncccc1-c1ccnc(N[C@H]2CCCNC2)n1 [Example 199, (S)-2-(4-Fluorophenyl)-N-(6-methyl-5-((3-(2-(piperidin-3-ylamino)pyrimidin-4-yl)pyridin-2-yl)oxy)naphthalen-1-yl)acetamide] — within 0.2 log units, 6.81
- Cc1ccc2c(N3C(=O)CCC3C)cccc2c1Oc1ncccc1-c1ccnc(N[C@H]2CCCNC2)n1 (mixture of isomers) [Example 237, 5-Methyl-1-(6-methyl-5-((3-(2-((S)-piperidin-3-ylamino)pyrimidin-4-yl)pyridin-2-yl)oxy)naphthalen-1-yl)pyrrolidin-2-one] — 0.42 log units lower, 6.33
- Cc1ccc2c(NS(=O)(=O)Cc3ccc(Cl)cc3)c(F)ccc2c1Oc1ncccc1-c1ccnc(N[C@H]2CCCNC2)n1 [Example 209, (S)-1-(4-Chlorophenyl)-N-(2-fluoro-6-methyl-5-((3-(2-(piperidin-3-ylamino)pyrimidin-4-yl)pyridin-2-yl)oxy)naphthalen-1-yl)methanesulfonamide] — 1.34 log units higher, 8.09
- Cc1ccc2c(NC(=O)[C@@H]3CC3(F)F)cccc2c1Oc1ncccc1-c1ccnc(N[C@H]2CCCNC2)n1 (single isomer, unassigned) [Example 180] — within 0.2 log units, 6.67
- Cc1ccc2c(NC[C@H](O)C(F)(F)F)c(F)ccc2c1Oc1ncccc1-c1ccnc(N[C@H]2CCCNC2)n1 [Example 377, (S)-1,1,1-Trifluoro-3-((2-fluoro-6-methyl-5-((3-(2-((S)-piperidin-3-ylamino)pyrimidin-4-yl)pyridin-2-yl)oxy)naphthalen-1-yl)amino)propan-2-ol] — 1.24 log units higher, 7.99
- Cc1ccc2c(NCCC(F)(F)F)cccc2c1Oc1ncccc1-c1ccnc(N[C@H]2CCCNC2)n1 [Example 348, (S)-4-(2-((2-Methyl-5-((3,3,3-trifluoropropyl)amino)naphthalen-1-yl)oxy)pyridin-3-yl)-N-(piperidin-3-yl)pyrimidin-2-amine] — 0.35 log units higher, 7.10

same assay, conditions: Table 2; read-out: XBP1s-luc 293 LUC (IC50)

Point of comparison: `Cc1ccc2c(NCC(O)C(C)C)cccc2c1Oc1ncccc1-c1ccnc(N[C@H]2CCCNC2)n1` (single isomer, unassigned) [Example 462, hydrochloride], pIC50 6.96. Against it:
- Cc1ccc2c(NS(=O)(=O)Cc3ccccc3F)c(F)ccc2c1Oc1ncccc1-c1ccnc(N[C@H]2CNC[C@H](F)C2)n1 (single isomer, unassigned) [Example 463, hydrochloride] — 0.39 log units lower, 6.57
- CCC(F)(F)CS(=O)(=O)Nc1c(F)ccc2c(Oc3ncccc3-c3ccnc(N[C@@H]4CNC[C@@H](F)C4)n3)c(C)ccc12 (single isomer, unassigned) [Example 496, hydrochloride] — 0.79 log units higher, 7.75
- Cc1ccc2c(NC[C@@H](O)C(F)F)cccc2c1Oc1ncccc1-c1ccnc(N[C@H]2CCCNC2)n1 (single isomer, unassigned) [Example 476, hydrochloride] — within 0.2 log units, 6.89
- Cc1ccc2c(NC[C@@H](O)C3CC3)cccc2c1Oc1ncccc1-c1ccnc(N[C@H]2CCCNC2)n1 (single isomer, unassigned) [Example 488, hydrochloride] — 0.56 log units higher, 7.52
- Cc1ccc2c(NS(=O)(=O)N(C)CC(F)(F)F)c(F)ccc2c1Oc1ncccc1-c1ccnc(N[C@H]2CNC[C@H](F)C2)n1 (single isomer, unassigned) [Example 499, hydrochloride] — 0.79 log units lower, 6.17
